Reference: patent US20220381657A1, “METHOD FOR PREPARING BIOLOGICAL MATERIAL HAVING EXCELLENT LIGHT-TRANSMITTING PROPERTY” (RIKEN, priority 2016, published 2022)
Like-named read-outs stand apart in the source and are kept apart here.

Key:
[1] = test system: fixed brain tissue suspension; assay: 1st delipidation assay: solubilization of fixed brain tissue suspension, turbidity at 600 nm; parameters: species or system mice
Protocol: Specifically, brains taken out of mice were sheared with a utility knife and then were disrupted by ultrasonication. To each of the resultant suspensions, an equal volume of 8% PFA solution was added to perform fixation at 4° C. for 1 hour. The resultant mixture was centrifuged to remove the supernatant, and the fixed brain tissue was washed with PBS for 3 times. PBS was added so as to obtain 2 mL of a fixed brain tissue suspension per brain. The fixed brain tissue suspension was diluted by 3.5 folds. To 20 μL of the resultant suspension, 130 μL of each 10 wt % chemical was added and was shaken at 37° C. overnight. Thus obtained mixed solutions were subjected to absorbance (turbidity) measurement at 600 nm. It is expected that a chemical solution which reduces the turbidity of a fixed brain suspension allows reducing light scattering by solubilizing lipids, which act as a scattering factor, in the brain tissue.

[2] = for OD400: Table 1; for 400 nm: OD at 400 nm of the chemical
bovine coagulated blood = assay: Decoloring screening: heme eluted from bovine coagulated blood (OD420-OD700); conditions: decolorization; for 700 nm calibrated 420 nm Average: OD420 calibrated by OD700; for integrated value 500-700 nm Average: integrated absorbance 500-700 nm
Protocol: A high-throughput screening system for evaluating the decoloring ability of various compounds was constructed. The screening system involved adding an aqueous solution of each compound to bovine coagulated blood and then measuring the absorbance of heme collected in the supernatant.
Specifically, to bovine blood, an equal amount of 8% PFA solution was added, and reacted at 4° C. overnight. The mixed liquid was centrifuged at 1500×g for 5 minutes, and the supernatant containing PFA was discarded. Then, the same amount of PBS as the original volume of blood was added to prepare a coagulated blood sample. To 150 μL of 10 wt % aqueous solution of each compound, 50 μL of the coagulated blood sample was added, and reacted at 37° C. overnight. The reaction solution was centrifuged at 1500×g for 5 minutes, and then 100 μL of the supernatant was added to a plate so as to be subjected to absorbance measurement. A sample which is suspended in water instead of being dissolved in the water has a weak decoloring effect, but none the less has a high absorbance value. […]

[3] = Table 1, 10 wt % chemical, fixed mouse brain suspension, 37° C. overnight, PBS = 1.000

Row | Compound | 1st delipidation assay Relative OD600 [1, 3] | OD400 [2] | pH (Table 1) | 700 nm calibrated 420 nm Average (bovine coagulated blood) | integrated value 500-700 nm Average (bovine coagulated blood) | Fluorescence quench Average (Serius; relative fluorescence) | 400 nm [2] | pH ([…]) | further results
1 | CC(C)(C)N(CCO)CCO [#0390, N-tert- Butyldiethanolamine] | 0.318 | 0.052 | 12.7 | – | – | – | – | – | –
2 | CCCCNCCN [#0422, N-Butylethylenediamine] | 0.307 | 0.05 | 12.7 | – | – | – | – | – | –
3 | C[C@H](CCC(=O)O)[C@H]1CC[C@H]2[C@@H]3[C@H](O)C[C@@H]4C[C@H](O)CC[C@]4(C)[C@H]3C[C@H](O)[C@]12C [#0566, Sodium Cholate] | – | – | – | – | – | – | – | – | 1st delipidation assay Relative OD600 [1]: 0.254
4 | CCCCCCCCCCS(=O)(=O)[O-].[Na+] [#0625, Sodium 1-decanesulfonate] | 0.325 | 0.046 | 5.9 | – | – | – | – | – | –
5 | CCCCCCCCCC(=O)N(C)CC(=O)[O-].[Na+] [#0703, N-Decanoylsarcosine sodium salt] | 0.223 | 0.047 | 7.0 | – | – | – | – | – | –
6 | CCN(CC)CCN [#0779, N,N-Diethyl-ethylenediamine] | – | – | – | 1.39 | 0.81 | 0.70 | 0.051 | 13.6 | –
7 | NCCCCN [#0783] | – | – | – | 2.21 | 1.42 | 0.60 | 0.05 | 14.0 | –
8 | NC(=O)c1cccnc1 [#0855, nicotinamide] | – | – | – | 2.63 | 2.45 | 0.75 | 0.052 | 10.4 | –
9 | CCCCCCCCCS(=O)(=O)[O-].[Na+] [#0870, Sodium 1-nonanesulfonate] | 0.247 | 0.047 | 6.8 | – | – | – | – | – | –
10 | CCCCCCCCCCCC[N+](C)(C)C.[Cl-] [#1021, Dodecyltrimethyl- ammonium chloride] | 0.194 | – | – | 1.96 | 1.70 | – | – | – | Fluorescence quench Average (Serius): 1.11
11 | CCCCCCCCCCCCOS(=O)(=O)[O-].[Na+] [#1035, Sodium dodecyl sulfate] | – | 0.048 | 6.3 | 1.28 | 1.32 | 1.15 | 0.048 | 6.3 | –
12 | CC(C)CCN [#1038, Isoamylamine] | 0.247 | 0.055 | 9.6 | – | – | – | – | – | –
13 | NCC(O)CN [#1062] | – | – | – | 1.13 | 0.80 | 0.67 | 0.054 | 12.8 | –
14 | OCC(O)c1ccccc1 (stereo not shown) [#1074, 1-Phenylethane-1,2-diol] | 0.336 | 0.05 | 9.5 | – | – | – | – | – | –
15 | c1cnccn1 [#1086] | – | – | – | 1.41 | 1.39 | 0.67 | 0.051 | 8.6 | –
16 | C1CCNCC1 [#1097, Piperidine] | 0.166 | – | – | – | – | – | – | – | –
17 | CC(O)CN(CCN(CC(C)O)CC(C)O)CCN(CC(C)O)CC(C)O (stereo not shown) [#1105, N,N,N′,N″,N″-Pentakis(2-hydroxypropyl) diethylene-triamine] | – | – | – | 1.20 | 1.05 | 0.74 | 0.057 | 13.2 | –
18 | N.O=C(O)C(F)(F)C(F)(F)C(F)(F)C(F)(F)C(F)(F)C(F)(F)C(F)(F)F [#1162, Ammonium pentadecafluorooctanoate] | 0.318 | – | – | – | – | – | – | – | –
19 | c1cnc(N2CCNCC2)nc1 [#1167, 1-(2-Pyrimidyl) piperazine] | – | – | – | 1.39 | 1.09 | 0.01 | 0.084 | 12.5 | –

Row | Compound | 1st delipidation assay Relative OD600 [1, 3] | OD400 [2] | pH (Table 1) | 700 nm calibrated 420 nm Average (bovine coagulated blood) | integrated value 500-700 nm Average (bovine coagulated blood) | Fluorescence quench Average (Serius; relative fluorescence) | 400 nm [2] | pH ([…]) | further results
20 | OCCCC1CCN(CCO)CC1 [#1226, 1-(2-Hydroxyethyl)-4-(3-hydroxypropyl) piperidine] | – | – | – | 2.20 | 2.29 | 0.76 | 0.05 | 14.1 | –
21 | CC(CN)CCCN (stereo not shown) [#1267, 2-Methyl-1,5-diaminopentane] | – | 0.08 | 12.9 | 1.48 | 1.09 | 0.51 | 0.08 | 12.9 | –
22 | CN1CCCC1 [#1295, 1-Methylpyrrolidine] | 0.325 | 0.085 | 10.5 | – | – | – | – | – | –
23 | CCCCCCCCCCCCOS(=O)(=O)[O-].[Li+] [#1310, Lithium dodecyl sulfate] | 0.155 | – | – | – | – | – | – | – | –
24 | OCCCCCBr [#1367] | – | – | – | 1.48 | 0.06 | −0.01 | 0.055 | 2.9 | –
25 | CCCCCCCCCCCS(=O)(=O)[O-].[Na+] [#1419, Sodium 1-undecanesulfonate] | 0.124 | 0.056 | 5.9 | – | – | – | – | – | –
26 | COc1ccc(CO)cc1OC [#1422, Veratryl alcohol] | – | – | – | 1.46 | 1.28 | 0.89 | 0.05 | 6.1 | –
27 | CN1C2CCC1CC(O)C2 (stereo not shown) [#1462, Tropine] | 0.292 | – | – | – | – | – | – | – | –
28 | C[C@H](CCC(=O)[O-])[C@H]1CC[C@H]2[C@@H]3CC[C@@H]4C[C@H](O)CC[C@]4(C)[C@H]3C[C@H](O)[C@]12C.[Na+] [#1507, Sodium deoxycholate] | – | 0.054 | 7.9 | 1.27 | 1.03 | 1.03 | 0.054 | 7.9 | –
29 | OCCN(CCO)CCN(CCO)CCO [#1537, N,N,N′,N′-Tetrakis(2-hydroxyethyl) ethylenediamine] | – | – | – | 1.29 | 1.63 | 0.66 | 0.048 | 11.7 | –
30 | CC(O)CN(CCN(CC(C)O)CC(C)O)CC(C)O (stereo not shown) [Quadrol ®, reference compound] | 0.569 | 0.048 | 12.4 | – | – | – | – | – | –
31 | Dodecene-1 LAS [#0672] | – | – | – | 1.45 | 1.41 | – | – | – | 1st delipidation assay Relative OD600 [1]: 0.152; Fluorescence quench Average (Serius): 1.08
32 | Isobutylamine [#1043] | 0.251 | – | – | – | – | – | – | – | –
33 | Isopropylamine [#1006] | 0.318 | – | – | – | – | – | – | – | –
34 | Nonidet P-40 [#1511] | – | – | – | – | – | – | – | – | 1st delipidation assay Relative OD600 [1]: 0.193
35 | Polyethylene glycol mono-4-octylphenyl ether [#1103] | – | – | – | – | – | – | – | – | 1st delipidation assay Relative OD600 [1]: 0.184
36 | Triton ™ X-100 [reference compound] | 0.240 | – | – | – | – | – | – | – | –
37 | Tween ® 80 [#1460] | 0.095 | 0.065 | 5.7 | – | – | – | – | – | –
